Converted amounts (≈) assume the structure as drawn. Where a name gives a salt, the structure may show the parent alone. Read-outs that look alike come from different tables or passages of the source.
Experiment: Solubility of the active ingredients in water
Format: physicochemical
Settings: thermodynamic from solid
Protocol: The invention is suitable for active ingredients which have a solubility in water of at least 10 g/l, preferably at least 30 g/l, particularly preferably of at least 50 g/l, especially preferably of at least 100 g/l, 200 g/l, 300 g/l or 400 g/l at 20° C. (solubility in water based on standard methods such as, for example, Pharmeuropa—Technical Guide for the Elaboration of Monographs, 3rd Edition (1999), Chapter IV, Appendix IV (incorporated by reference) with vigorous shaking for 1 min, leaving to stand for 15 min at 20° C. in purified water). These ranges include all intermediate values and subranges.

solubility at 15 min (20 °C) [mg/mL] | Structure (SMILES) | solubility at 15 min (at 20° C., Pharmeuropa Technical Guide method, shaking for 15 min, read-out: solubility in water) [mg/mL]
500 | CNC[C@H](O)c1cccc(O)c1 [Phenylephrine hydrochloride] | –
500 | CC(C)(C)NCC(O)c1cc(O)cc(O)c1 (stereo not drawn) [Terbutaline sulphate] | –
– | Cn1c(=O)c2[nH]cnc2n(C)c1=O [Theophylline] | 8.4 (≈ 46.6 mM)

Source: patent US8465769B2, “Pharmaceutical composition with controlled active ingredient release for active ingredients with good solubility in water” (Evonik Roehm GmbH, priority 2006, dated 2013)
